Experimental data taken from patent US12649751B2 (Arcus Biosciences, Inc., priority 2022, dated 2026).
pIC50: −log10 of the molar value. Read-outs that look alike come from different tables or passages of the source.

Columns and labels:
HPK1 = HPK1 (Homo sapiens, UniProt Q92918); assay: HPK1 Biochemical Assay (ADP-Glo luminescence; low ATP 10 μM or high ATP 200 μM)
[1] = system: p-SLP-76 (Ser376) in Jurkat cells; assay: pSLP76 Cellular Assay (AlphaLISA SureFire Ultra p-SLP-76 (Ser376), anti-CD3 activated Jurkat cells); type: cell-based; conditions: read-out: Cellular Potency
Procedure, shortened: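 Jurkat cells, serum-starved overnight in Opti-MEM then in HBSS, preincubated 1 h at 37 °C with 22-point 2-fold compound dilutions, then stimulated with anti-CD3 (0.025 mg/ml added solution) for 45 min. Lysate p-SLP-76 (Ser376) measured by AlphaLISA at 570 nm; IC50 from 4-parameter logistic fit.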

[2] = 2 nM HPK1, 10 μM ATP, read-out: Biochemical Potency (low ATP)
[3] = Homo sapiens, Jurkat cells, anti-CD3 stimulation, pSLP76
[4] = HPK1 ADP-Glo assay, high ATP (200 μM ATP, 5 nM HPK1), read-out: Biochemical Potency (high ATP)
[5] = Homo sapiens, pSLP76 (Ser376) AlphaLISA, anti-CD3 activated Jurkat cells
[6] = HPK1 ADP-Glo assay, low ATP (10 μM ATP, 2 nM HPK1), read-out: Biochemical Potency (low ATP)
[7] = 5 nM HPK1, 200 μM ATP, read-out: Biochemical Potency (high ATP)

Sequence of HPK1 (Q92918 whole entry, species assumed): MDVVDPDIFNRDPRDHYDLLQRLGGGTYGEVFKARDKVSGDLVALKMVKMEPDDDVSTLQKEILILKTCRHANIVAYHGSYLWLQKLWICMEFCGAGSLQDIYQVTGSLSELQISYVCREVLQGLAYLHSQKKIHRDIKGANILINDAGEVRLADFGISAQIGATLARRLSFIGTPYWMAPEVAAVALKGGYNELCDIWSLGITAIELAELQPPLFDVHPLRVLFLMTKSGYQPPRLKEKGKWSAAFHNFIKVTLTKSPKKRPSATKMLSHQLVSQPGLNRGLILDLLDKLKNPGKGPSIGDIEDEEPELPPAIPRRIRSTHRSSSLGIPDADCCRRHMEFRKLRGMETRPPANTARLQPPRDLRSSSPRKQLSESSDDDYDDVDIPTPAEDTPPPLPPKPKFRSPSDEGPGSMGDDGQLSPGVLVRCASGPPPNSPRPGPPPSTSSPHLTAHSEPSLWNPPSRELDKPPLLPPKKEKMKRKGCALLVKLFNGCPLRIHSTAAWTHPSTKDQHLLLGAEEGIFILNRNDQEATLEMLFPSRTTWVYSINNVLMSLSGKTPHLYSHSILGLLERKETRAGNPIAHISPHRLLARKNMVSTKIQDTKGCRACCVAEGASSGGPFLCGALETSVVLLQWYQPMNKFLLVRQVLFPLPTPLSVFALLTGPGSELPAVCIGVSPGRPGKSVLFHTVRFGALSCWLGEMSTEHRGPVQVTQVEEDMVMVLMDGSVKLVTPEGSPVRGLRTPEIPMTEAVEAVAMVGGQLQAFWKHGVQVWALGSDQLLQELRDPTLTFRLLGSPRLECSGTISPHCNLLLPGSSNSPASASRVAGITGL

| Compound | pIC50 (HPK1; [2]) | pIC50 [1, 3] | pIC50 (HPK1; [4]) | pIC50 [1, 5] | also measured |
| --- | --- | --- | --- | --- | --- |
| Cc1cccnc1-c1nc2cc(Nc3ccc(C)c(N4CC[C@@H](N)C4)n3)ncc2s1 [Example 74, 6-[(3R)-3-Aminopyrrolidin-1-yl]-5-methyl-N-[2-(3-methylpyridin-2-yl)-[1,3]thiazolo[5,4-c]pyridin-6-yl]pyridin-2-amine] | > 7.00 | < 5.30 | – | – | – |
| CC(=O)N1CCCc2c(-c3nc4cc(Nc5cc(C)nc(N6C[C@@H]7C[C@H]6CN7C)n5)ncc4s3)cccc21 [Example 573] | – | – | 6.00 to 7.00 | 5.30 to 6.00 | – |
| Fc1cccc(F)c1-c1nc2cc(Nc3ccc4c(c3)CC[C@@H](N3C5COCC3C5)CC4)ncc2s1 [Example 329] | – | – | – | 4.60 to 5.30 | pIC50 (HPK1; [6]): 6.00 to 7.00 |
| Cc1cc(-c2nc3cc(Nc4ccc(C5CCOCC5)c(N5C[C@@H]6CCN(C)[C@@H]6C5)n4)ncc3s2)ccn1 [Example 248, 6-[(3aS,6aS)-1-Methyl-octahydropyrrolo[3,4-b]pyrrol-5-yl]-N-[2-(2-methylpyridin-4-yl)-[1,3]thiazolo[5,4-c]pyridin-6-yl]-5-(oxan-4-yl)pyridin-2-amine] | > 7.00 | > 7.00 | – | – | pIC50 (HPK1; [7]): > 7.00 |
| Cc1cccc(F)c1-c1nc2cc(Nc3ccc(N4CCOCC4)c(CN(C)C)n3)ncc2s1 [Example 14, 6-[(Dimethylamino)methyl]-N-[2-(2-fluoro-6-methylphenyl)-[1,3]thiazolo[5,4-c]pyridin-6-yl]-5-(morpholin-4-yl)pyridin-2-amine] | > 7.00 | 6.00 to 7.00 | – | – | – |
| c1cncc(-c2nc3cc(Nc4ccc(C5CCOCC5)c(CN5CCCC5)n4)ncc3s2)c1 [Example 225, 5-(Oxan-4-yl)-N-[2-(pyridin-3-yl)-[1,3]thiazolo[5,4-c]pyridin-6-yl]-6-[(pyrrolidin-1-yl)methyl]pyridin-2-amine] | > 7.00 | 6.00 to 7.00 | – | – | – |
| CCN1C[C@@H]2C[C@H]1CN2c1nc(C)cc(Nc2cc3nc(O[C@@H](C)c4ccccc4)sc3cn2)n1 [Example 483] | – | – | > 7.00 | 6.00 to 7.00 | – |
| Cc1ccncc1-c1nc2cc(Nc3ccc(N4CCOCC4)c(CN(C)C)n3)ncc2s1 [Example 3, 6-[(Dimethylamino)methyl]-N-[2-(4-methylpyridin-3-yl)-[1,3]thiazolo[5,4-c]pyridin-6-yl]-5-(morpholin-4-yl)pyridin-2-amine] | > 7.00 | 6.00 to 7.00 | – | – | – |
| Cc1cc(Nc2cc3nc(-c4cnn(C)c4)sc3cn2)nc(N2C[C@@H]3C[C@H]2CN3C[C@@H](C)O)n1 [Example 499] | – | – | > 7.00 | > 7.00 | – |
| Cc1c(-c2nc3cc(Nc4ccc(N5CCOCC5)c(CN(C)C)n4)ncc3s2)cnc2c1NCCO2 [Example 28, 6-[(Dimethylamino)methyl]-N-(2-{8-methyl-1H,2H,3H-pyrido[2,3-b][1,4]oxazin-7-yl}-[1,3]thiazolo[5,4-c]pyridin-6-yl)-5-(morpholin-4-yl)pyridin-2-amine] | > 7.00 | 6.00 to 7.00 | – | – | – |
| Cc1cc(-c2nc3cc(Nc4cc(C)nc(N5C[C@@H]6C[C@H]5CN6CCO)n4)ncc3s2)cc(C2CC2)n1 [Example 537] | – | – | > 7.00 | 6.00 to 7.00 | – |
| Cc1cc(Nc2cc3nc(-c4cnn(C)c4C(=O)N(C)C)sc3cn2)nc(N2C[C@@H]3C[C@H]2CN3C)n1 [Example 372] | – | – | > 7.00 | 6.00 to 7.00 | – |
| Cc1cccnc1-c1nc2cc(Nc3cncc(N4C[C@@H]5C[C@H]4CN5C)n3)ncc2s1 [Example 145, 6-[(1S,4S)-5-Methyl-2,5-diazabicyclo[2.2.1]heptan-2-yl]-N-[2-(3-methylpyridin-2-yl)-[1,3]thiazolo[5,4-c]pyridin-6-yl]pyrazin-2-amine] | > 7.00 | 6.00 to 7.00 | – | – | – |
| Cc1cc(Nc2cc3nc(-c4cccc(C(=O)N(C)C)c4)sc3cn2)nc(N2C[C@@H]3C[C@H]2CN3CCOCCO)n1 [Example 502] | – | – | > 7.00 | 6.00 to 7.00 | – |
| CCN(CC)C(=O)c1cccc(-c2nc3cc(Nc4cc(C)nc(N5C[C@@H]6C[C@H]5CN6CC)n4)ncc3s2)c1 [Example 342] | – | – | > 7.00 | 6.00 to 7.00 | – |
| CN1C[C@@H]2C[C@H]1CN2c1nccc(Nc2cc3nc(-c4ccnc(N5CCOCC5)c4)sc3cn2)n1 [Example 460] | – | – | – | – | pIC50 (HPK1; [6]): > 7.00; pIC50 ([1]; pSLP76 (Ser376) AlphaLISA, anti-CD3 activated Jurkat cells): 6.00 to 7.00 |
| Cc1cc(-c2nc3cc(Nc4cccc(N5C[C@@H]6C[C@H]5CN6C)n4)ncc3s2)ccn1 [Example 96, 6-[(1S,4S)-5-Methyl-2,5-diazabicyclo[2.2.1]heptan-2-yl]-N-[2-(2-methylpyridin-4-yl)-[1,3]thiazolo[5,4-c]pyridin-6-yl]pyridin-2-amine] | > 7.00 | 6.00 to 7.00 | – | – | pIC50 (HPK1; [7]): > 7.00 |
| CN1C[C@@H]2C[C@H]1CN2c1nccc(Nc2cc3nc(-c4ccnc(N5CCOCC5)c4)sc3cn2)n1 [Example 268, 2-[(1S,4S)-5-Methyl-2,5-diazabicyclo[2.2.1]heptan-2-yl]-N-{2-[2-(morpholin-4-yl)pyridin-4-yl]-[1,3]thiazolo[5,4-c]pyridin-6-yl}pyrimidin-4-amine] | > 7.00 | 6.00 to 7.00 | – | – | – |
| CCN(CC)C(=O)c1cccc(-c2nc3cc(Nc4cc(C)nc(N5C[C@@H]6C[C@H]5CN6CCO)n4)ncc3s2)c1 [Example 504] | – | – | > 7.00 | > 7.00 | – |
| CCN1C[C@@H]2C[C@H]1CN2c1nc(Nc2cc3nc(-c4ccnc(C(C)(C)O)c4)sc3cn2)cc(C)c1F [Example 337] | – | – | > 7.00 | 6.00 to 7.00 | – |
| Cc1cc(Nc2cc3nc(-c4cccc(C(=O)N(C)[C@H]5CCOC5)c4)sc3cn2)nc(N2C[C@@H]3C[C@H]2CN3CCO)n1 [Example 555] | – | – | > 7.00 | > 7.00 | – |
| Cc1cc(Nc2cc3nc(-c4cccc(S(=O)(=O)CC5CC5)c4)sc3cn2)nc(N2C[C@@H]3C[C@H]2CN3CCO)n1 [Example 501] | – | – | > 7.00 | > 7.00 | – |

The next lines start with results.

| pIC50 (HPK1; [2]) | pIC50 [1, 3] | pIC50 (HPK1; [4]) | pIC50 [1, 5] | Compound | also measured |
| --- | --- | --- | --- | --- | --- |
| – | – | > 7.00 | 6.00 to 7.00 | CCN1C[C@@H]2C[C@H]1CN2c1nc(C)cc(Nc2cc3nc(-c4ccnc(C(=O)NC5CCCC5)c4)sc3cn2)n1 [Example 514] | – |
| – | – | > 7.00 | > 7.00 | CCN1C[C@@H]2C[C@H]1CN2c1nc(C)cc(Nc2cc3nc(-c4cccc(C(=O)N5CCC(C)CC5)c4)sc3cn2)n1 [Example 517] | – |
| > 7.00 | 5.30 to 6.00 | – | – | FC(F)n1cc(-c2nc3cc(Nc4ccc(C5CCOCC5)c(CN5CCCC5)n4)ncc3s2)cn1 [Example 224, N-{2-[1-(Difluoromethyl)-1H-pyrazol-4-yl]-[1,3]thiazolo[5,4-c]pyridin-6-yl}-5-(oxan-4-yl)-6-[(pyrrolidin-1-yl)methyl]pyridin-2-amine] | – |
| – | – | > 7.00 | > 7.00 | CCN1C[C@@H]2C[C@H]1CN2c1nc(C)cc(Nc2cc3nc(-c4cccc(C(=O)N[C@H](C)C5CC5)c4)sc3cn2)n1 [Example 524] | – |
| – | – | > 7.00 | 6.00 to 7.00 | Cc1cc(Nc2cc3nc(-c4ccnc(N5CCOCC5)c4)sc3cn2)nc(N2C[C@@H]3C[C@H]2CN3CCO)n1 [Example 458] | – |
| > 7.00 | 6.00 to 7.00 | – | – | Cc1cccc(F)c1-c1nc2cc(Nc3ccc(N4CCOCC4)c(CN4CCCS4(=O)=O)n3)ncc2s1 [Example 30, 2-[(6-{[2-(2-Fluoro-6-methylphenyl)-[1,3]thiazolo[5,4-c]pyridin-6-yl]amino}-3-(morpholin-4-yl)pyridin-2-yl)methyl]-1λ^6,2-thiazolidine-1,1-dione] | – |
| – | – | > 7.00 | > 7.00 | Cc1cc(Nc2cc3nc(-c4ccnc(C(C)C)c4)sc3cn2)nc(N2C[C@@H]3C[C@H]2CN3CCO)n1 [Example 354] | – |
| > 7.00 | 6.00 to 7.00 | – | – | Cc1cccnc1-c1nc2cc(Nc3ccc(F)c(N4C[C@@H]5C[C@H]4CN5)n3)ncc2s1 [Example 83, 6-[(1S,4S)-2,5-Diazabicyclo[2.2.1]heptan-2-yl]-5-fluoro-N-[2-(3-methylpyridin-2-yl)-[1,3]thiazolo[5,4-c]pyridin-6-yl]pyridin-2-amine] | – |
| – | – | > 7.00 | > 7.00 | Cc1cc(C(=O)N(C)C)cc(-c2nc3cc(Nc4cc(C)cc(N5C[C@@H]6C[C@H]5CN6CCO)n4)ncc3s2)c1 [Example 347] | – |
| > 7.00 | 6.00 to 7.00 | – | – | Cc1cc(Nc2cc3nc(-c4c(C)cccc4F)sc3cn2)nc(O[C@H]2CCNC2)c1 [Example 178, N-[2-(2-Fluoro-6-methylphenyl)-[1,3]thiazolo[5,4-c]pyridin-6-yl]-4-methyl-6-[(3S)-pyrrolidin-3-yloxy]pyridin-2-amine] | – |
| – | – | > 7.00 | 6.00 to 7.00 | Cc1cc(Nc2cc3nc(-c4cnn(C(C)(C)C#N)c4)sc3cn2)nc(N2C[C@@H]3C[C@H]2CN3CCO)n1 [Example 355] | – |
| > 7.00 | 6.00 to 7.00 | – | – | Cc1cc(-c2nc3cc(Nc4ccc(C5CCOCC5)c(CN5CCC(F)(F)C5)n4)ncc3s2)ccn1 [Example 220, 6-[(3,3-Difluoropyrrolidin-1-yl)methyl]-N-[2-(2-methylpyridin-4-yl)-[1,3]thiazolo[5,4-c]pyridin-6-yl]-5-(oxan-4-yl)pyridin-2-amine] | – |
| > 7.00 | 6.00 to 7.00 | – | – | Cc1ccc(Nc2cc3nc(-c4ccnn4C)sc3cn2)nc1O[C@H]1CCNC1 [Example 182, 5-Methyl-N-[2-(1-methyl-1H-pyrazol-5-yl)-[1,3]thiazolo[5,4-c]pyridin-6-yl]-6-[(3S)-pyrrolidin-3-yloxy]pyridin-2-amine] | – |
